Legend:
Format in all cases: cell-based
S. pneumoniae ATCC 49619 = test: MIC (broth microdilution or agar dilution, CLSI); details: S. pneumoniae HAV#003, ATCC 49619
Method in brief: (§1)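 Isolates other than streptococci and anaerobes, which had their own procedures, were grown overnight at 35° C on tryptic soy agar with 5% sheep blood. Suspensions were then diluted to a final inoculum of 5×10^5 CFU/mL in broth microdilution wells.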

K. oxytoca Clinical = test: MIC (broth microdilution or agar dilution, CLSI); details: K. oxytoca HAV#450; Clinical
Method in brief: as §1

S. pneumoniae ATCC 6303 = test: MIC (broth microdilution or agar dilution, CLSI); details: S. pneumoniae HAV#351, ATCC 6303
Method in brief: as §1

[1] = tested on: S. aureus ATCC BAA-1707 (MRSA); test: MIC (broth microdilution or agar dilution, CLSI); details: S. aureus HAV#016, ATCC BAA-1707; MRSA
Method in brief: as §1

S. aureus hVISA = test: MIC (broth microdilution or agar dilution, CLSI); details: S. aureus HAV#204, hVISA
Method in brief: as §1

S. pyogenes ATCC 19615 = test: MIC (broth microdilution or agar dilution, CLSI); details: S. pyogenes HAV#004, ATCC 19615
Method in brief: as §1

[2] = tested on: S. pneumoniae MMX 3031 cMefA; test: MIC (broth microdilution or agar dilution, CLSI); details: S. pneumoniae HAV#034; MMX 3031, cMefA
Method in brief: as §1

S. aureus ATCC 29213 = test: MIC (broth microdilution or agar dilution, CLSI); details: S. aureus HAV#001, ATCC 29213, MP-549
Method in brief: as §1

E. faecalis ATCC 29212 = test: MIC (broth microdilution or agar dilution, CLSI); details: E. faecalis HAV#005, ATCC 29212
Method in brief: as §1

[3] = tested on: S. pneumoniae MMX 3028 cErmB; test: MIC (broth microdilution or agar dilution, CLSI); details: S. pneumoniae HAV#033; MMX 3028, cErmB
Method in brief: as §1

[4] = tested on: S. pyogenes MMX 946; cErmB; test: MIC (broth microdilution or agar dilution, CLSI); details: S. pyogenes HAV#035, MMX 946; cErmB, mac-resistant
Method in brief: as §1

E. coli LptD = test: MIC (broth microdilution or agar dilution, CLSI); details: E. coli HAV#040; LptD
Method in brief: as §1

K. pneumoniae ATCC 10031 = test: MIC (broth microdilution or agar dilution, CLSI); details: K. pneumoniae HAV#008, ATCC 10031
Method in brief: as §1

S. aureus ATCC 700699 = test: MIC (broth microdilution or agar dilution, CLSI); details: S. aureus HAV#202, ATCC 700699 (VISA)
Method in brief: as §1

S. aureus MP-549 msrA = test: microbe, parasite or virus in culture; details: S. aureus HAV#032, MP-549; MSR(A)
Method in brief: as §1

[5] = tested on: broad panel of different clinical isolates; test: organism not typed
Method in brief: as §1

E. coli armA = test: microbe, parasite or virus in culture; details: E. coli HAV#056; Clinical, armA
Method in brief: as §1

E. coli ΔTolC = test: microbe, parasite or virus in culture; details: E. coli HAV#038; ΔTolC
Method in brief: as §1

S. aureus BAA 977 iErmA = test: microbe, parasite or virus in culture; details: S. aureus #HAV002, ATCC BAA 977; iErmA, MRSA
Method in brief: as §1

## Gentamicin
S. pneumoniae ATCC 49619
  MIC: 16 µg/mL
K. oxytoca Clinical
  MIC: 4 µg/mL
S. pneumoniae ATCC 6303
  MIC: 32 µg/mL
[1]
  MIC: 1 µg/mL
S. aureus hVISA
  MIC: >64 µg/mL
S. pyogenes ATCC 19615
  MIC: 8 µg/mL
[2]
  MIC: 8 µg/mL
S. aureus ATCC 29213
  MIC: 1 µg/mL
E. faecalis ATCC 29212
  MIC: 16 µg/mL
[3]
  MIC: 4 µg/mL
[4]
  MIC: 16 µg/mL
E. coli LptD
  MIC: 1 µg/mL
K. pneumoniae ATCC 10031
  MIC: 0.25 µg/mL
S. aureus ATCC 700699
  MIC: >64 µg/mL
S. aureus MP-549 msrA
  MIC: 1 µg/mL
[5]; A. baumannii HAV#651, Clinical
  MIC: 2 µg/mL
[5]; A. baumannii HAV#652 Clinical
  MIC: 16 µg/mL
[5]; A. baumannii HAV#653, Clinical
  MIC: 0.5 µg/mL
[5]; A. baumannii HAV#654, Clinical
  MIC: 2 µg/mL
[5]; A. baumannii HAV#655, Clinical
  MIC: 2 µg/mL
[5]; A. baumannii HAV#656, Clinical
  MIC: 4 µg/mL
[5]; A. baumannii HAV#657, Clinical
  MIC: 4 µg/mL
[5]; A. baumannii HAV#658, Clinical
  MIC: 1 µg/mL
[5]; A. baumannii HAV#659, Clinical
  MIC: 32 µg/mL
[5]; A. baumannii HAV#660, Clinical
  MIC: 32 µg/mL
[5]; A. baumannii HAV#661, Clinical
  MIC: 1 µg/mL
[5]; A. baumannii HAV#662, Clinical
  MIC: 4 µg/mL
[5]; A. baumannii HAV#663, Clinical
  MIC: 0.5 µg/mL
[5]; A. baumannii HAV#664, Carbapenem R
  MIC: >128 µg/mL
[5]; E. coli HAV#501, Clinical
  MIC: 2 µg/mL
[5]; E. coli HAV#503, Clinical
  MIC: 4 µg/mL
[5]; E. coli HAV#511, Clinical
  MIC: 16 µg/mL
[5]; E. coli HAV#512, Clinical
  MIC: 2 µg/mL
[5]; E. coli HAV#513, Clinical
  MIC: 2 µg/mL
[5]; E. coli HAV#514, Clinical
  MIC: 1 µg/mL
[5]; E. coli HAV#516, ESBL-producing
  MIC: 2 µg/mL
[5]; E. faecalis HAV#251, Clinical VRE
  MIC: 16 µg/mL
[5]; E. faecalis HAV#606, Clinical, VRE
  MIC: >256 µg/mL
[5]; E. faecalis HAV#607, Clinical
  MIC: >256 µg/mL
[5]; E. faecalis HAV#608, Clinical
  MIC: >256 µg/mL
[5]; E. faecalis HAV#609, Clinical
  MIC: >256 µg/mL
[5]; E. faecalis HAV#610, Clinical
  MIC: >256 µg/mL
[5]; E. faecalis HAV#611, Line R & Vanco R
  MIC: >128 µg/mL
[5]; E. faecalis HAV#612, Line R
  MIC: >128 µg/mL
[5]; E. faecium HAV#317, Clinical
  MIC: 16 µg/mL
[5]; E. faecium HAV#318, VanA, VRE
  MIC: 8 µg/mL
[5]; E. faecium HAV#324, Clinical
  MIC: >256 µg/mL
[5]; E. faecium HAV#327, Clinical
  MIC: 8 µg/mL
[5]; E. faecium HAV#328, Clinical
  MIC: >256 µg/mL
[5]; E. faecium HAV#329, Clinical
  MIC: 4 µg/mL
[5]; H. influenzae HAV#376, ATCC-9007
  MIC: 4 µg/mL
[5]; K. pneumoniae HAV#041, Clinical, KPC
  MIC: 8 µg/mL
[5]; K. pneumoniae HAV#404, Clinical
  MIC: 0.5 µg/mL
[5]; K. pneumoniae HAV#405, Clinical
  MIC: 0.5 µg/mL
[5]; K. pneumoniae HAV#406, Clinical
  MIC: 1 µg/mL
[5]; K. pneumoniae HAV#407, Clinical
  MIC: 0.5 µg/mL
[5]; K. pneumoniae HAV#408, Clinical
  MIC: 2 µg/mL
[5]; K. pneumoniae HAV#409, ESBL-producing
  MIC: 0.5 µg/mL
[5]; S. aureus HAV#017, MRSA Col(Colindale, England)
  MIC: 0.5 µg/mL
[5]; S. aureus HAV#051, mecA, norA, spcl, ermA, aad1, aac6′-aph2″
  MIC: 2 µg/mL
[5]; S. aureus HAV#052, mecA, norA, fosB, blaZ
  MIC: 1 µg/mL
[5]; S. aureus HAV#053 mecA, norA, fosB
  MIC: 1 µg/mL
[5]; S. aureus HAV#054, mecA, norA, spcl, aad1, fosB, ermA, aac6′-aph2″, blaZ
  MIC: 128 µg/mL
[5]; S. aureus HAV#203, Clinical (VISA)
  MIC: >64 µg/mL
[5]; S. aureus HAV#216, Clinical, cfr
  MIC: 8 µg/mL
[5]; S. aureus HAV#217, cfr
  MIC: 4 µg/mL
[5]; S. epidermidis HAV# 275 Clinical, cfr
  MIC: >64 µg/mL
[5]; S. epidermidis HAV# 276, cfr
  MIC: >64 µg/mL
[5]; S. haemolyticus HAV#252, Line R & Methicillin R
  MIC: >128 µg/mL
E. coli armA
  MIC: >256 µg/mL
E. coli ΔTolC
  MIC: 1 µg/mL
S. aureus BAA 977 iErmA
  MIC: 2 µg/mL

— patent publication US20230203081A1, “LINCOSAMIDE ANTIBIOTICS AND USES THEREOF” (President and Fellows of Harvard College, priority 2020, published 2023)
